Measured values as given in ChEMBL document CHEMBL5131437, “Development of novel 2-aminoalkyl-6-(2-hydroxyphenyl)pyridazin-3(2H)-one derivatives as balanced multifunctional agents against Alzheimer's disease” (Eur J Med Chem, 2022).

Experiments:
[1] = Antioxidant activity of compound assessed as trolox equivalent of ORAC radical scavenging activity by ORAC-FL assay; format: functional
Acetylcholinesterase = Acetylcholinesterase (Electrophorus electricus, UniProt O42275); assay: Inhibition of electric eel AChE by Ellman's method
Chain of Acetylcholinesterase (O42275 whole entry): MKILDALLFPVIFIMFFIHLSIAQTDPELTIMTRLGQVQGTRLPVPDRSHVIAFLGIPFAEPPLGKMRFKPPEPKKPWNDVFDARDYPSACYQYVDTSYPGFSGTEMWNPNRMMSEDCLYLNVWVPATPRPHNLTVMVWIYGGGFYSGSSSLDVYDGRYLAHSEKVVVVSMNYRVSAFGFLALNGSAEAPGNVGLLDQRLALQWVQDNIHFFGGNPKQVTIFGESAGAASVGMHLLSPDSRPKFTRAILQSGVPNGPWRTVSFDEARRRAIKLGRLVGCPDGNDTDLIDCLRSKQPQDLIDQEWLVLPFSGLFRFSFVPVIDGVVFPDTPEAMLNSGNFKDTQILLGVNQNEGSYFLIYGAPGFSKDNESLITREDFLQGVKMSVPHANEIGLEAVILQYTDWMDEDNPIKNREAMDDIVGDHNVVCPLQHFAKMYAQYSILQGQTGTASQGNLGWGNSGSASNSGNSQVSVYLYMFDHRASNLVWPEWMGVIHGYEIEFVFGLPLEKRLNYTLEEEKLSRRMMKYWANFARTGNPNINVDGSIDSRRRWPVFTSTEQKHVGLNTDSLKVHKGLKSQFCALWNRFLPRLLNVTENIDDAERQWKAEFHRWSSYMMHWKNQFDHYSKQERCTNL

[2] = tested on: Butyrylcholinesterase (Rattus norvegicus); assay: Inhibition of rat serum BuChE at 10 uM by Ellman's method relative to control
[3] = target: Amyloid-beta precursor protein (Homo sapiens) (UniProt P05067); assay: Inhibition of self-induced amyloid beta (1 to 42) (unknown origin) aggregation by Thioflavin T based fluorometric assay relative to control; parameters: concentration or dose not given beside the values; conditions: concentration not given here
Chain of Amyloid-beta precursor protein (Homo sapiens) (P05067 whole entry): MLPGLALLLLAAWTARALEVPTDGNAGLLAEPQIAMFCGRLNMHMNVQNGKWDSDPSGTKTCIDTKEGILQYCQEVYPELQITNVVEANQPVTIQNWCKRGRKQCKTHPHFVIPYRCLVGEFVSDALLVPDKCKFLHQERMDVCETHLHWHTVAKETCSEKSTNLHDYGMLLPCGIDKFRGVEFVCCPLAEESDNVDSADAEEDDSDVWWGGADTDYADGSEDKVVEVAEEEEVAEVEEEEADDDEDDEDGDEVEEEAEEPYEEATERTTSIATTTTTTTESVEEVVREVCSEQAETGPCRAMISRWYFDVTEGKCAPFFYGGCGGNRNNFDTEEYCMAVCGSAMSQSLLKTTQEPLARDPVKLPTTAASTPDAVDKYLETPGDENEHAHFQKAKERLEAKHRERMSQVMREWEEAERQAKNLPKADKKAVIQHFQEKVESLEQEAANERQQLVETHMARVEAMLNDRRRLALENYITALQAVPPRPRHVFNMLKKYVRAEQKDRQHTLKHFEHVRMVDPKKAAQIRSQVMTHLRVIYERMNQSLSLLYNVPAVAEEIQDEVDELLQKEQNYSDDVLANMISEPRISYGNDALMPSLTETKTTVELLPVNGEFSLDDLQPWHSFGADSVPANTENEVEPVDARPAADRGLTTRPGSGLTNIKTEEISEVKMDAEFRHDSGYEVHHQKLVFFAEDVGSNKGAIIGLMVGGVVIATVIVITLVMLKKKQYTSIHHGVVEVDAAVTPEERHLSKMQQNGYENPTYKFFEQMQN

[4] = target: Amyloid-beta precursor protein (Homo sapiens) (UniProt P05067); assay: Inhibition of self-induced amyloid beta (1 to 42) (unknown origin) disaggregation by Thioflavin T based fluorometric assay relative to control; parameters: concentration or dose not given beside the values; conditions: concentration not given here

With `CCN(CCCCCCn1nc(-c2cc(OC)ccc2O)ccc1=O)Cc1cccc(F)c1` the Activity [1] was 1.95, the IC50 (Acetylcholinesterase; read-out: IC50) was 2300 nM and the inhibition [2] was 17.4%.
`CCN(CCCCCCn1nc(-c2cc(F)ccc2O)ccc1=O)Cc1ccccc1N(C)C` showed an Activity [1] of 0.82, an IC50 (Acetylcholinesterase; read-out: IC50) of 160 nM and an inhibition [3] of 30.3%. It also gave an inhibition [2] of 28.8% and an inhibition [4] of 26.1%.
Work on `O=c1ccc(-c2ccccc2O)nn1CCCCCCN1CCc2ccccc2C1` yielded an Activity [1] of 2.58, an IC50 (Acetylcholinesterase; read-out: IC50) of 2580 nM and an inhibition [2] of 21.7%.
In the case of `CCN(CCCCCCn1nc(-c2ccc(F)cc2O)ccc1=O)Cc1ccccc1N(C)C`, the Activity [1] is reported as 1.09, the IC50 (Acetylcholinesterase; read-out: IC50) is reported as 1180 nM and the inhibition [2] is reported as 27.3%.
For `CCN(CCCCCCn1nc(-c2cc(C)ccc2O)ccc1=O)Cc1cccc(F)c1`, the Activity [1] was 1.14, the IC50 (Acetylcholinesterase; read-out: IC50) was 890 nM and the inhibition [2] was 29.2%.
Molecule `CCN(CCCCCCn1nc(-c2cc(C)ccc2O)ccc1=O)Cc1ccccc1N(C)C` has an Activity [1] of 1.26, an IC50 (Acetylcholinesterase; read-out: IC50) of 280 nM and an inhibition [2] of 23.9%.
`CCN(CCCCCCn1nc(-c2cc(Br)ccc2O)ccc1=O)Cc1cccc(F)c1` gave an Activity [1] of 0.98, an IC50 (Acetylcholinesterase; read-out: IC50) of 2570 nM and an inhibition [2] of 12.9%.
In the case of `COc1ccccc1CN(C)CCCCCCn1nc(-c2ccccc2O)ccc1=O`, the Activity [1] is reported as 2.89, the IC50 (Acetylcholinesterase; read-out: IC50) is reported as 1070 nM and the IC50 (Acetylcholinesterase; read-out: pIC50 (converted)) is reported as 85.1 nM. For the same molecule, the inhibition [3] was 30.9% and the inhibition [2] was 22.6%.
Molecule `CCN(CCCCCCn1nc(-c2ccccc2O)ccc1=O)Cc1ccccc1C` has an Activity [1] of 2.54, an IC50 (Acetylcholinesterase; read-out: IC50) of 2540 nM and an inhibition [2] of 13.6%.
In the case of `CCN(CCCCCCn1nc(-c2ccccc2O)ccc1=O)Cc1ccccc1Cl`, the Activity [1] is reported as 1.72, the IC50 (Acetylcholinesterase; read-out: IC50) is reported as 2310 nM and the inhibition [2] is reported as 19.6%.
Work on `O=c1ccc(-c2ccccc2O)nn1CCCCCCN1CCCC1` yielded an Activity [1] of 2.98, an IC50 (Acetylcholinesterase; read-out: IC50) of 1600 nM and an inhibition [2] of 15.7%.
Work on `CCN(CCCCCCn1nc(-c2cc(N(C)C)ccc2O)ccc1=O)Cc1cccc(F)c1` yielded an Activity [1] of 2.34, an IC50 (Acetylcholinesterase; read-out: IC50) of 350 nM and an inhibition [3] of 97%. It also gave an inhibition [2] of 15% and an inhibition [4] of 80.7%.
Work on `CCN(CCCCCCn1nc(-c2cc(NC(C)=O)ccc2O)ccc1=O)Cc1cccc(F)c1` yielded an Activity [1] of 2.1, an IC50 (Acetylcholinesterase; read-out: IC50) of 69 nM and an inhibition [3] of 38.8%. The inhibition [2] was 17.7%.
For `CCN(CCCCCCn1nc(-c2cc(N(C)C)ccc2O)ccc1=O)Cc1ccccc1OC`, the Activity [1] was 2.17, the IC50 (Acetylcholinesterase; read-out: IC50) was 1210 nM and the inhibition [3] was 93.9%. For the same molecule, the inhibition [2] was 16.7% and the inhibition [4] was 79.2%.
Molecule `CCN(CCCCCCCCn1nc(-c2cc(N(C)C)ccc2O)ccc1=O)Cc1ccccc1N(C)C` has an Activity [1] of 3.31, an IC50 (Acetylcholinesterase; read-out: IC50) of 16500 nM and an inhibition [3] of 97.4%. For the same molecule, the inhibition [2] was 32.1% and the inhibition [4] was 86.9%.
Molecule `O=c1ccc(-c2ccccc2O)nn1CCCCCCN1CCCCC1` has an Activity [1] of 3.34, an IC50 (Acetylcholinesterase; read-out: IC50) of 4560 nM and an inhibition [2] of 25.6%.
`CCN(CCCCCCn1nc(-c2ccccc2O)ccc1=O)Cc1cccc(Cl)c1` showed an Activity [1] of 1.56, an IC50 (Acetylcholinesterase; read-out: IC50) of 2930 nM and an inhibition [2] of 17.6%.
In the case of `CCN(CCCCCCn1nc(-c2cc(F)ccc2O)ccc1=O)Cc1ccccc1OC`, the Activity [1] is reported as 0.84, the IC50 (Acetylcholinesterase; read-out: IC50) is reported as 570 nM and the inhibition [3] is reported as 30.2%. For the same molecule, the inhibition [2] was 31.8% and the inhibition [4] was 25.2%.
With `CCN(CCCCCCn1nc(-c2cc(NC(C)=O)ccc2O)ccc1=O)Cc1ccccc1N(C)C` the Activity [1] was 2.61, the IC50 (Acetylcholinesterase; read-out: IC50) was 86 nM and the inhibition [3] was 44%. The inhibition [2] was 14.4% and the inhibition [4] was 38.4%.
`CCN(CCCCCCn1nc(-c2cc(Cl)ccc2O)ccc1=O)Cc1cccc(F)c1` gave an Activity [1] of 0.84, an IC50 (Acetylcholinesterase; read-out: IC50) of 1430 nM and an inhibition [2] of 15.8%.
With `CCN(CCCCCCn1nc(-c2cc([N+](=O)[O-])ccc2O)ccc1=O)Cc1ccccc1N(C)C` the Activity [1] was 0.42, the IC50 (Acetylcholinesterase; read-out: IC50) was 460 nM and the inhibition [2] was 28.3%.
In the case of `CCN(CCCCCCn1nc(-c2cc(Cl)ccc2O)ccc1=O)Cc1ccccc1OC`, the Activity [1] is reported as 0.96, the IC50 (Acetylcholinesterase; read-out: IC50) is reported as 9250 nM and the inhibition [2] is reported as 24.3%.
For `CCN(CCCCCCn1nc(-c2cc(Br)ccc2O)ccc1=O)Cc1ccccc1OC`, the Activity [1] was 1.53, the IC50 (Acetylcholinesterase; read-out: IC50) was 880 nM and the inhibition [2] was 34.2%.
With `CCN(CCCCCCOc1ccc(-c2ccccc2O)nn1)Cc1ccc(F)cc1` the Activity [1] was 0.61, the IC50 (Acetylcholinesterase; read-out: IC50) was 49000 nM and the inhibition [2] was under 5%.
With `O=c1ccc(-c2ccccc2O)n[nH]1` the Activity [1] was 2.15 and the inhibition [2] was under 5%.
Molecule `CCN(CCCCCCn1nc(-c2cc(Cl)ccc2O)ccc1=O)Cc1ccccc1N(C)C` has an Activity [1] of 1.09, an IC50 (Acetylcholinesterase; read-out: IC50) of 740 nM and an inhibition [2] of 27.3%.
`CCN(CCCCCCn1nc(-c2cc(F)ccc2O)ccc1=O)Cc1cccc(F)c1` gave an Activity [1] of 0.75, an IC50 (Acetylcholinesterase; read-out: IC50) of 250 nM and an inhibition [3] of 33.8%. For the same molecule, the inhibition [2] was 33%.
Work on `CCN(CCCCCCOc1ccc(-c2cc(N(C)C)ccc2O)nn1)Cc1ccccc1N(C)C` yielded an Activity [1] of 2.28, an IC50 (Acetylcholinesterase; read-out: IC50) of 2180 nM and an inhibition [3] of 95.2%. It also gave an inhibition [2] of 16.6% and an inhibition [4] of 85.4%.
In the case of `CCN(CCCCCCn1nc(-c2ccccc2O)ccc1=O)Cc1ccccc1OC`, the Activity [1] is reported as 2.76, the IC50 (Acetylcholinesterase; read-out: IC50) is reported as 740 nM and the IC50 (Acetylcholinesterase; read-out: pIC50 (converted)) is reported as 372 nM. The inhibition [3] was 36.1% and the inhibition [2] was 24.5%.
`CCN(CCCCCCn1nc(-c2ccc(OC)cc2O)ccc1=O)Cc1ccccc1N(C)C` showed an Activity [1] of 3.55, an IC50 (Acetylcholinesterase; read-out: IC50) of 1590 nM and an inhibition [3] of 34.3%. It also gave an inhibition [2] of 19.2%.
Work on `CCN(CCCCCCn1nc(-c2ccccc2O)ccc1=O)Cc1ccccc1` yielded an Activity [1] of 2.96, an IC50 (Acetylcholinesterase; read-out: IC50) of 910 nM and an inhibition [3] of 15.4%. The inhibition [2] was 25.7%.
`CCN(CCCCCCCCn1nc(-c2cc(NC(C)=O)ccc2O)ccc1=O)Cc1ccccc1N(C)C` showed an Activity [1] of 3.56, an IC50 (Acetylcholinesterase; read-out: IC50) of 2720 nM and an inhibition [3] of 95.2%. The inhibition [2] was 36.4%.
For `CN(CCCCCCn1nc(-c2ccccc2O)ccc1=O)Cc1ccccc1`, the Activity [1] was 2.78, the IC50 (Acetylcholinesterase; read-out: IC50) was 930 nM and the inhibition [2] was 28.6%.
For `CCN(CCCCCCn1nc(-c2cccc(N(C)C)c2O)ccc1=O)Cc1ccccc1N(C)C`, the Activity [1] was 2.03, the IC50 (Acetylcholinesterase; read-out: IC50) was 4780 nM and the inhibition [3] was 57.9%. The inhibition [2] was 18.8% and the inhibition [4] was 53%.
In the case of `CCN(CCCCCCn1nc(-c2cc(Br)ccc2O)ccc1=O)Cc1ccccc1N(C)C`, the Activity [1] is reported as 1.48, the IC50 (Acetylcholinesterase; read-out: IC50) is reported as 250 nM and the inhibition [2] is reported as 32.2%.
Work on `CCN(CC)CCCCCCn1nc(-c2ccccc2O)ccc1=O` yielded an Activity [1] of 2.69, an IC50 (Acetylcholinesterase; read-out: IC50) of 2480 nM and an inhibition [3] of 33.8%. The inhibition [2] was 13.4%.
In the case of `CCN(CCCCCCn1nc(-c2ccccc2O)ccc1=O)Cc1ccc(F)cc1`, the Activity [1] is reported as 2.26, the IC50 (Acetylcholinesterase; read-out: IC50) is reported as 8580 nM and the inhibition [2] is reported as 9.3%.
With `CCN(CCCCCCn1nc(-c2cc([N+](=O)[O-])ccc2O)ccc1=O)Cc1cccc(F)c1` the Activity [1] was 0.29, the IC50 (Acetylcholinesterase; read-out: IC50) was 1000 nM and the inhibition [2] was 33.3%.
With `CCN(CCCCCCn1nc(-c2cc(OC)ccc2O)ccc1=O)Cc1ccccc1OC` the Activity [1] was 1.96, the IC50 (Acetylcholinesterase; read-out: IC50) was 630 nM and the inhibition [2] was 27.3%.
With `CCN(CCCCCCOc1ccc(-c2ccccc2O)nn1)Cc1cccc(F)c1` the Activity [1] was 0.54, the IC50 (Acetylcholinesterase; read-out: IC50) was 4260 nM and the inhibition [3] was 26.4%. The inhibition [2] was 18.5%.
Work on `CCN(CCCCCCn1nc(-c2ccccc2O)ccc1=O)Cc1ccccc1F` yielded an Activity [1] of 2.43, an IC50 (Acetylcholinesterase; read-out: IC50) of 1030 nM and an inhibition [3] of 27.4%. For the same molecule, the inhibition [2] was 15.7%.
`CCN(CCCCCCn1nc(-c2cc(C)ccc2O)ccc1=O)Cc1ccccc1OC` gave an Activity [1] of 1.38, an IC50 (Acetylcholinesterase; read-out: IC50) of 1650 nM and an inhibition [2] of 38.9%.
For `CCN(CCCCCCn1nc(-c2ccccc2O)ccc1=O)Cc1ccc(N(C)C)cc1`, the Activity [1] was 3.63, the IC50 (Acetylcholinesterase; read-out: IC50) was 9210 nM and the inhibition [3] was 51.9%. It also gave an inhibition [2] of under 5%.
Molecule `CCN(CCCCCCn1nc(-c2cc([N+](=O)[O-])ccc2O)ccc1=O)Cc1ccccc1OC` has an Activity [1] of 0.27, an IC50 (Acetylcholinesterase; read-out: IC50) of 1160 nM and an inhibition [2] of 31.8%.
